Source: patent US9487561B2, “Biologically active complex and its preparation” (HAMLET PHARMA AB, priority 2010, dated 2016)

Experiments:
Type in all cases: cell-based, human
[1] = test system: eIF2α, ATF6, XBP1, CHOP in A549 tumor cells; test: ER stress response (Western blot, XBP1 splicing PCR, RT-PCR); details: for XBP1 splicing: PCR; for effect of ion channel inhibitor on HAMLET-induced eIF2α phosphorylation (ER stress): lung carcinoma cells, 30 minutes pretreatment, HAMLET 21 and 35 μM, 1 hour
Experimental: (§1) RNA was prepared with the RNeasy Mini Kit (QIAGEN, Hilden, Germany) and treated with DNAse I (QIAGEN). cDNA was synthesized using the Superscript III first strand RT-PCR system (Invitrogen). PCR of spliced and un-spliced XBP1 was as described (Yoshida et al., 2001, Cell 107: 881-891). Real-time PCR was performed on a Rotorgene 2000 instrument (Corbett Life Science, Sydney, Australia) using TaqMan Gene Expression Assays (Applied BioSystems) CHOP/DDIT3 (Hs01090850), IL6 (Hs00985639), IL8 (Hs00174103) and TNFα (Hs00174128). GAPDH (Hs99999905_m1) was used for normalization.
(§2) Equal volumes of lysates were separated by SDS-PAGE on 4-12% Bis-Tris gels (Invitrogen) and blotted onto PVDF membranes. For other Western blots, 200,000 cells were allowed to adhere overnight in a 6-well plate. After HAMLET treatment the cells were washed with PBS and lysed in M-PER lysis buffer (Pierce) containing Complete protease inhibitor cocktail and PhosSTOP phosphatase inhibitor cocktail (both from Roche). The detached cells were collected by centrifugation. The lysates were cleared by centrifugation and protein concentrations were measured using the DC Protein Assay (Bio-Rad Laboratories, Hercules, Calif.). Equal amounts of protein were separated by SDS-PAGE on 4-12% Bis-Tris gels (Invitrogen) and blotted onto PVDF membranes (GE Healthcare). Membranes were saturated with BSA (GAPDH) or nonfat dry milk (phospho-p38, p38, phospho-ERK1/2, ERK1/2) and incubated with anti-p38, anti-phospho-p38, anti-ERK1/2, anti-phospho-(Thr202/Tyr204)-p44/42 (all 1:500-1000, Cell Signaling Technology), anti-ATF6 (1:1000, IMG-273, Imgenex), anti-phospho-eIF2α (Ser51), (1:500, Cell Signaling Technology) or anti-GAPDH (1:3000-5000, Novus Biologicals) antibodies followed by horseradish peroxidase-conjugated anti-rabbit (1:1000, DakoCytomation, Glostrup, Denmark) or anti-mouse (1:40000-50000, Novus Biologicals) antibodies for staining. Bound antibodies were detected with ECL Plus Western Blotting Reagent (GE Healthcare, Little Chalfont, UK) and GelDoc equipment (Bio-Rad Laboratories, Hercules, Calif.). If required, membranes were stripped with Restore Western Blot Stripping Buffer (Pierce, Rockford, Ill.), blocked and reprobed with new antibodies. MAP kinase phosphorylation was analyzed on a Human Phospho-MAPK array (Proteome Profiler Array, R&D Systems) as per the manufacturer's instruction. Band and spot intensities were quantified using ImageJ (Abramoff et al., July 2004, Biophotonics International). Cytokine quantification (IL6, IL8, TNFα) was performed on an […] 1000 immunoassay system (Siemens Diagnostics).
Disturbances in ER Ca^2+ regulation can impair protein folding in the ER by inactivation of Ca^2+ dependent chaperones, such as GRP78 and calreticulin. An increase in unfolded proteins may activate a conserved series of signal-transduction events. Spanning the ER membrane, three ER stress sensors PERK, ATF6 and IRE1 are activated by an overload of unfolded proteins. Upon PERK activation, eIF2α is phosphorylated, shutting down protein translation to avoid unfolded protein overload. To examine if HAMLET disturbs the ER and triggers an unfolded protein response, we analyzed the transcription of ER stress-induced genes.

[2] = test system: A549 lung carcinoma cells; test: global transcriptional response, whole genome arrays (Affymetrix)
Experimental: For the microarray analysis with ion channel inhibitors, 200,000 A549 cells/well were allowed to adhere overnight on a 6-well plate. After 1 hour of HAMLET treatment, the cells were lysed and RNA was extracted using the RNeasy Mini Kit (QIAGEN). The samples were sent to AROS Applied Biotechnology (Århus, Denmark) for analysis. Data was preprocessed using RMA implemented in the free software packages “affy” as provided by R and Bioconductor (<www.r-project.org>). Differentially expressed genes were identified using empirically Bayes adjusted t-statistics and characterized using the Functional Annotation Clustering Tool in the Database for Annotation, Visualization and Integrated Discovery (DAVID), (Dennis et al., 2003 Genome Biology 4(5): P3) and Ingenuity Pathway Analysis (Ingenuity Systems). All microarray data were registered into NCBI's Gene Expression Omnibus (GEO) database (<www.ncbi.nlm.nih.gov/projects/geo>) with accession numbers GSE23772.
To understand the mechanisms of carcinoma cell death and the contribution of ion channel activation, the global transcriptional response to HAMLET was examined, using whole genome arrays. A549 lung carcinoma cells were exposed to HAMLET (21 μM) for one hour and cells pretreated with amiloride were compared to cells in medium alone. […] An unbiased global overview of transcription was obtained by performing a hierarchical clustering of the top 3000 genes by variance and was visualized in a heatmap (FIG. 2D and FIG. 13). Genes with empirical Bayes adjusted p-values <0.05 and log 2 fold changes >1 were considered differentially expressed and were functionally characterized using Database for Annotation, Visualization and Integrated Discovery, (Dennis et al., supra, 2003) and Ingenuity Pathway Analysis.
In total 12 RNA samples were generated (triplicate of control, oleic Acid, HAMLET, and oleate-treated) and hybridized to Affymetrix Whole Genome microarrays U219. […] For statistical analysis normalized data were linear model fitted and Empirical Bayesian analysis, coupled with p-value adjustment, performed.

[3] = test system: IL-6, IL-8, TNFα in healthy, differentiated cells; test: innate immune response (qRT-PCR, cytokine quantification)
Experimental: as §1, §2
To examine the molecular basis of the difference in HAMLET susceptibility between carcinoma cells and healthy, differentiated cells, transcriptional profiles were compared.
To further examine if the innate immune response in healthy, differentiated cells requires functional ion channels, the expression of IL-6, IL-8 and TNFα mRNA was quantified in cells pretreated with amiloride and BaCl2, using qRT-PCR.

[4] = test system: A549 lung carcinoma cells; test: cell death assay (trypan blue exclusion, ATP levels); details: 24 hours, control cells without inhibitor or pretreated with inhibitor
[5] = Example 5, Affymetrix U219, adjusted p-value <0.05 and log 2-foldchange of 1

`CCCCCCCC/C=C\CCCCCCCC(=O)[O-].[Na+]` [oleate, sodium oleate] was tested, and the XBP1 splicing [1] was “caused splicing of XBP1”, the “number of differentially expressed genes” value [2, 5] was 426 genes and the “global transcriptional response (heatmap, top 3000 genes by variance)” value ([2]; FIG. 7B) was “very similar transcriptional response”.

For `NC(N)=NC(=O)c1nc(Cl)c(N)nc1N` [amiloride, 3,5-diamino-6-chloro-N-(diaminomethylene)pyrazine-2-carboxamide], the “effect of inhibitor on HAMLET-induced IL-6 mRNA” value [3] was “abolished”, the “effect of ion channel inhibitor on HAMLET-induced eIF2α phosphorylation (ER stress)” value [1] was “reduced eIF2α phosphorylation” and the “effect of inhibitor alone on transcription” value [2] was “no significant effect on transcription”. For the same molecule, the “number of differentially expressed genes in response to HAMLET in cells pretreated with inhibitor” value ([2]; HAMLET 21 μM, one hour) was 52 genes and the “cells died after HAMLET” value [4] was 8%.

For `[Ba+2].[Cl-].[Cl-]` [BaCl2, barium chloride], the “effect of inhibitor on HAMLET induced TNFα expression” value [3] was “caused a reduction”, the “effect of inhibitor on IL-6 and IL-8 response to HAMLET” value [3] was “did not inhibit” and the “effect of ion channel inhibitor on HAMLET-induced eIF2α phosphorylation (ER stress)” value [1] was “reduced eIF2α phosphorylation”. For the same molecule, the “cells died after HAMLET” value [4] was 13%.

B1: HAMLET (protein, UniProt P00709 20-142, looked up)
Alpha-lactalbumin: KQFTKCELSQLLKDIDGYGGIALPELICTMFHTSGYDTQAIVENNESTEYGLFQISNKLWCKSSQVPQSRNICDISCDKFLDDDITDDIMCAKKILDIKGIDYWLAHKALCTEKLEQWLCEKL
modifications: oleic acid complex
B1 was tested, and the “secreted protein levels of IL-6, IL-8, and TNFα” value [3] was “clear increase in secreted protein levels”, the “increase in IL-6 mRNA” value ([3]; HAMLET 21 μM, 1 hour, qRT-PCR) was 30 fold and the “increase of CHOP mRNA” value ([1]; 3 hours) was 30 fold. The eIF2α phosphorylation ([1]; A549 tumor cells) was “time- (30 minutes) and dose-dependent”, the XBP1 splicing [1] was “detected” and the “ATF6 (Western blotting)” value ([1]; three hours of HAMLET treatment) was “increase in cleaved as well as full-length ATF6”. For the same molecule, the “number of differentially expressed genes” value [2, 5] was 336 genes, the “number of differentially expressed genes” value ([2]; HAMLET 21 μM, one hour, no inhibitor, adjusted p-values <0.05, log 2 fold changes >1) was 336 genes and the “cells died after HAMLET” value [4] was 44%.
